Test results from US7973061B2, “Anaplastic lymphoma kinase modulators and methods of use” (Exelixis, Inc., priority 2004, dated 2011).

What follows are compounds tested against T1, ALK (baculovirus expressed human ALK kinase domain F1098-K1410) (Homo sapiens, UniProt Q9UM73) (assay: biochemical). Settings: 1 μM ATP, 4 μM poly-AEKY, 12 nM ALK, 2 hours at ambient temperature; read-out: ALK IC50.
T1 construct: human ALK kinase domain F1098-K1410; made in house
Procedure, shortened: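 Baculovirus-expressed human ALK kinase domain (F1098-K1410) was run in a luciferase-coupled chemiluminescent format, with ATP near its KM. After 2 h at ambient temperature, remaining ATP was read by luciferase-luciferin luminescence. IC50 came from 10-point dose-response curves fitted to a four-parameter equation with Hill slope.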

T1 sequence (Q9UM73 1098-1410): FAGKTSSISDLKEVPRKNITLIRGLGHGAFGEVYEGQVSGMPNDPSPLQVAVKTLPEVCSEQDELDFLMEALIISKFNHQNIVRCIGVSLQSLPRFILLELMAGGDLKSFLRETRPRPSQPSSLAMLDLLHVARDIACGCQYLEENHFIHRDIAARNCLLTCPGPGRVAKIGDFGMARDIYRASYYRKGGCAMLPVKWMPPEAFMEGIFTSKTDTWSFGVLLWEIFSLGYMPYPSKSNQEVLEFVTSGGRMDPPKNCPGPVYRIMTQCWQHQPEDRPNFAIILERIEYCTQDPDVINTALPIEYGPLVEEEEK

| Compound | IC50 |
| --- | --- |
| C[C@H](CNC(=O)c1coc(CNC(=O)COc2ccc(OC(F)(F)F)cc2)n1)c1ccccc1 [Entry 240, N-[(2S)-2-phenylpropyl]-2-({[({4-[(trifluoromethyl)oxy]phenyl}oxy)acetyl]amino}methyl)-1,3-oxazole-4-carboxamide] | 500 to 2000 nM |
| COCCNC(=O)c1csc(CNC(=O)COc2ccc(OC(F)(F)F)cc2)n1 [Entry 287, N-[2-(methyloxy)ethyl]-2-({[({4-[(trifluoromethyl)oxy]phenyl}oxy)acetyl]amino}methyl)-1,3-thiazole-4-carboxamide] | 500 to 2000 nM |
| O=C(COc1ccc(OC(F)(F)F)cc1)NCc1nc(C(=O)NCCN2CCCCC2)cs1 [Entry 290, N-(2-piperidin-1-ylethyl)-2-({[({4-[(trifluoromethyl)oxy]phenyl}oxy)acetyl]amino}methyl)-1,3-thiazole-4-carboxamide] | 500 to 2000 nM |
| O=C(COc1ccc(OC(F)(F)F)cc1)NCc1nc(C(=O)NCCc2c[nH]c3ccccc23)co1 [Entry 251, N-[2-(1H-indol-3-yl)ethyl]-2-({[({4-[(trifluoromethyl)oxy]phenyl}oxy)acetyl]amino}methyl)-1,3-oxazole-4-carboxamide] | 500 to 2000 nM |
| O=C(COc1ccc(OC(F)(F)F)cc1)NCc1nc(C(=O)NCCc2ccc(Cl)cc2)cs1 [Entry 83, N-[2-(4-chlorophenyl)ethyl]-2-({[({4-[(trifluoromethyl)oxy]phenyl}oxy)acetyl]amino}methyl)-1,3-thiazole-4-carboxamide] | 50 to 500 nM |
| O=C(COc1ccc(OC(F)(F)F)cc1)NCc1nc(C(=O)NCCc2ccccc2Oc2ccccc2)cs1 [Entry 213, N-{2-[2-(phenyloxy)phenyl]ethyl}-2-({[({4-[(trifluoromethyl)oxy]phenyl}oxy)acetyl]amino}methyl)-1,3-thiazole-4-carboxamide] | 50 to 500 nM |
| COc1ccccc1CNC(=O)c1coc(CNC(=O)COc2ccc(OC(F)(F)F)cc2)n1 [Entry 203, N-{[2-(methyloxy)phenyl]methyl}-2-({[({4-[(trifluoromethyl)oxy]phenyl}oxy)acetyl]amino}methyl)-1,3-oxazole-4-carboxamide] | 50 to 500 nM |
| CN1CCCC1CCNC(=O)c1csc(CNC(=O)COc2ccc(OC(F)(F)F)cc2)n1 (stereo not drawn) [Entry 247, N-[2-(1-methylpyrrolidin-2-yl)ethyl]-2-({[({4-[(trifluoromethyl)oxy]phenyl}oxy)acetyl]amino}methyl)-1,3-thiazole-4-carboxamide] | 500 to 2000 nM |
| O=C(COc1ccc(OC(F)(F)F)cc1)NCc1nc(C(=O)NCC2CCCO2)cs1 (stereo not drawn) [Entry 265, N-(tetrahydrofuran-2-ylmethyl)-2-({[({4-[(trifluoromethyl)oxy]phenyl}oxy)acetyl]amino}methyl)-1,3-thiazole-4-carboxamide] | 500 to 2000 nM |
| O=C(COc1ccc(OC(F)(F)F)cc1)NCc1nc(C(=O)NCc2ccco2)cs1 [Entry 249, N-(furan-2-ylmethyl)-2-({[({4-[(trifluoromethyl)oxy]phenyl}oxy)acetyl]amino}methyl)-1,3-thiazole-4-carboxamide] | 500 to 2000 nM |
| O=C(COc1ccc(OC(F)(F)F)cc1)NCc1nc(C(=O)NCCC(c2ccccc2)c2ccccc2)cs1 [Entry 260, N-(3,3-diphenylpropyl)-2-({[({4-[(trifluoromethyl)oxy]phenyl}oxy)acetyl]amino}methyl)-1,3-thiazole-4-carboxamide] | 500 to 2000 nM |

Continued, values first:

| IC50 | Compound |
| --- | --- |
| 50 to 500 nM | O=C(COc1ccc(OC(F)(F)F)cc1)NCc1nc(C(=O)NC(c2ccccc2)c2ccccc2)cs1 [Entry 167, N-(diphenylmethyl)-2-({[({4-[(trifluoromethyl)oxy]phenyl}oxy)acetyl]amino}methyl)-1,3-thiazole-4-carboxamide] |
| 50 to 500 nM | O=C(COc1ccc(OC(F)(F)F)cc1)NCc1nc(C(=O)NCc2cc(F)ccc2F)cs1 [Entry 61, N-[(2,5-difluorophenyl)methyl]-2-({[({4-[(trifluoromethyl)oxy]phenyl}oxy)acetyl]amino}methyl)-1,3-thiazole-4-carboxamide] |
| 50 to 500 nM | O=C(COc1ccc(OC(F)(F)F)cc1)NCc1nc(C(=O)NCc2cccc(F)c2)cs1 [Entry 127, N-[(3-fluorophenyl)methyl]-2-({[({4-[(trifluoromethyl)oxy]phenyl}oxy)acetyl]amino}methyl)-1,3-thiazole-4-carboxamide] |
| 50 to 500 nM | O=C(COc1ccc(OC(F)(F)F)cc1)NCc1nc(C(=O)NCc2ccc(Cl)c(Cl)c2)cs1 [Entry 75, N-[(3,4-dichlorophenyl)methyl]-2-({[({4-[(trifluoromethyl)oxy]phenyl}oxy)acetyl]amino}methyl)-1,3-thiazole-4-carboxamide] |
| 50 to 500 nM | O=C(COc1ccc(OC(F)(F)F)cc1)NCc1nc(C(=O)NC2CCc3ccccc32)cs1 (stereo not drawn) [Entry 182, N-(2,3-dihydro-1H-inden-1-yl)-2-({[({4-[(trifluoromethyl)oxy]phenyl}oxy)acetyl]amino}methyl)-1,3-thiazole-4-carboxamide] |
| 50 to 500 nM | C[C@H](NC(=O)c1csc(CNC(=O)COc2ccc(OC(F)(F)F)cc2)n1)C(C)(C)C [Entry 102, 2-({[({4-[(trifluoromethyl)oxy]phenyl}oxy)acetyl]amino}methyl)-N-[(1S)-1,2,2-trimethylpropyl]-1,3-thiazole-4-carboxamide] |
| 50 to 500 nM | CSc1ccc(NC(=O)NCc2nc(C(=O)NCCc3cccc(Cl)c3)cs2)cc1 [Entry 173, N-[2-(3-chlorophenyl)ethyl]-2-{[({[4-(methylthio)phenyl]amino}carbonyl)amino]methyl}-1,3-thiazole-4-carboxamide] |
| 50 to 500 nM | O=C(COc1ccc(OC(F)(F)F)cc1)NCc1nc(C(=O)NCc2cc(Cl)cc(Cl)c2)cs1 [Entry 69, N-[(3,5-dichlorophenyl)methyl]-2-({[({4-[(trifluoromethyl)oxy]phenyl}oxy)acetyl]amino}methyl)-1,3-thiazole-4-carboxamide] |
| 50 to 500 nM | O=C(COc1ccc(OC(F)(F)F)cc1)NCc1nc(C(=O)NCc2ccc(F)c(C(F)(F)F)c2)cs1 [Entry 174, N-{[4-fluoro-3-(trifluoromethyl)phenyl]methyl}-2-({[({4-[(trifluoromethyl)oxy]phenyl}oxy)acetyl]amino}methyl)-1,3-thiazole-4-carboxamide] |
| 50 to 500 nM | CC(C)c1ccc(CC(=O)NCc2nc(C(=O)NCCc3ccccc3F)cs2)cc1 [Entry 114, N-[2-(2-fluorophenyl)ethyl]-2-[({[4-(1-methylethyl)phenyl]acetyl}amino)methyl]-1,3-thiazole-4-carboxamide] |
| 50 to 500 nM | CCOc1ccc(CCNC(=O)c2csc(CNC(=O)COc3ccc(OC(F)(F)F)cc3)n2)cc1 [Entry 68, N-{2-[4-(ethyloxy)phenyl]ethyl}-2-({[({4-[(trifluoromethyl)oxy]phenyl}oxy)acetyl]amino}methyl)-1,3-thiazole-4-carboxamide] |
| 50 to 500 nM | O=C(COc1ccc(OC(F)(F)F)cc1)NCc1nc(C(=O)NCCSCc2c(Cl)cccc2Cl)cs1 [Entry 93, N-(2-{[(2,6-dichlorophenyl)methyl]thio}ethyl)-2-({[({4-[(trifluoromethyl)oxy]phenyl}oxy)acetyl]amino}methyl)-1,3-thiazole-4-carboxamide] |
| < 50 nM | O=C(COc1ccc(OC(F)(F)F)cc1)NCc1nc(C(=O)NC23C[C@H]4C[C@@H](C2)C[C@@H](C3)C4)cs1 [Entry 23, N-tricyclo[3.3.1.1~3,7~]dec-1-yl-2-({[({4-[(trifluoromethyl)oxy]phenyl}oxy)acetyl]amino}methyl)-1,3-thiazole-4-carboxamide] |
